What was measured:
[1] = ASL pH measured in vivo with pH-sensitive planar optode on tracheal surface; set-up: species or system pig
Description: To assess pH in vivo, we used non-invasive dual lifetime referencing to interrogate a 3×3 mm planar optode (pH sensitive foil, PreSens GmbH, Regensburg, Germany)^13 applied directly to the tracheal surface. The device used to transmit and receive the excitation and emission light was a single channel pH meter (pH-1 mini; PreSens GmbH). The tip of the fiberoptic pH meter was kept at the same distance from the tracheal surface in all samples and confirmed by recording the amplitude registered by the device. Calibration before each set of measurements was done by placing the planar optode on the surface of a flat filter soaked in standard pH buffers.
(§1) To decrease airway pH in non-CF pigs, CO2 concentration was controlled in a humidified chamber (100% measured relative humidity, 25-30° C.) using 0 or 15% CO2 and 21% O2 in N2.

S. aureus isolate 43SA = assay: Bacterial killing by S. aureus-coated grids placed on tracheal surface in vivo
Protocol: Bacteria were cultured to log phase growth and 1×10^8 bacteria were mixed with 0.1 mg/ml N-hydroxysulfosuccinimide (sulfo-NHS)-biotin (Thermo Scientific) for 1 hour at room temperature. Streptavidin-coated grids were then incubated with biotinylated bacteria for 30 minutes and rinsed in PBS.
Bacteria-coated grids were used in three preparations. They were placed on the airway surface in vivo in pigs. They were tested in ASL removed from pigs after methacholine stimulation. They were also placed on the apical surface of primary cultures of differentiated airway epithelia. In each case, after removal from ASL, they were immediately (2-3 seconds) rinsed with PBS and then immersed in PBS containing the fluorescent indicators SYTO 9 and propidium iodide (Live/Dead BacLight™ Bacterial Viability assay, Invitrogen). Propidium iodide staining and this assay indicate the percentage of dead cells (Invitrogen, Molecular Probes product information and Fig. S7). […]
(§2) For each experimental condition, time point, and/or animal, 2 or 3 grids were examined. For each grid, all live and dead bacteria were counted in 5-16 individual microscopic (60×) fields; each microscopic field contained about 100-1000 bacteria. […]
as §1

S. aureus = settings: bacteria on grids exposed for 30 seconds
Protocol: Gold grids (TEM grids, 200 mesh, Ted Pella Inc.) were immersed in 1 mM 11-mercaptoundecanoic acid (HS(CH2)10COOH, MUA, Aldrich) solution for 30 minutes at room temperature and then exposed to 1-ethyl-3-(3-diethylaminopropyl)carbodiimide (EDC) and N-hydroxysuccinimide (NHS) (molar ratio 1:2) for 30 minutes to activate the carboxyl groups of MUA. Grids were then placed in a phosphate buffer solution (PBS), pH 7.4, containing 10 μg/ml streptavidin (Sigma) for 30 minutes and then rinsed with PBS. Streptavidin-coated grids were immersed in 1 M glycine for 30 minutes to quench the reaction and then rinsed with PBS. We used S. aureus isolate 43SA (isolated from a CF pig with pulmonary infection^5), and P. aeruginosa PAO1. […] Bacteria were cultured to log phase growth and 1×10^8 bacteria were mixed with 0.1 mg/ml N-hydroxysulfosuccinimide (sulfo-NHS)-biotin (Thermo Scientific) for 1 hour at room temperature. Streptavidin-coated grids were then incubated with biotinylated bacteria for 30 minutes and rinsed in PBS.
Bacteria-coated grids were used in three preparations. They were placed on the airway surface in vivo in pigs. […]
as §2

## O=C=O [CO2, reference compound]
[1]; non-CF pigs, tracheas exposed to 15% CO2 in vivo
  ASL pH: 6.89 ± 0.15 (6)
S. aureus isolate 43SA; non-CF pigs, 15% CO2, grids on surface for 30 seconds
  % dead: 18.5 ± 6.8 (4) %

## ethanol [70% alcohol]
S. aureus
  % dead: 97%

## O=C([O-])O.[Na+] [NaHCO3]
[1]; CF pigs, 50 μL 100 mM aerosolized onto airway surface
  ASL pH: 7.43 ± 0.30 (7)
S. aureus isolate 43SA; CF pigs, 50 μL 100 mM aerosolized onto airway surface, grids 30 seconds
  % dead: 64.4 ± 7.0 (5) %

Source: US20130316022A1, “METHOD TO ENHANCE ANTIMICROBIAL ACTIVITY BY INCREASING pH” (University of Iowa Research Foundation, priority 2012, published 2013)
